US11052092B2, “N-{[2-(piperidin-1-yl)phenyl](phenyl)methyl}-2-(3-oxo-3,4-dihydro-2H-1,4-benzoxazin-7-yl)acetamide derivatives and related compounds as ROR-gamma modulators for treating autoimmune diseases” (Genfit, priority 2017, dated 2021)

Assays:
MPO activity = MPO activity in ear skin homogenates of the IMQ induced psoriasis study; type: in vivo, C57BL/6 female mice; details: 30 mpk oral, in comparison with IMQ-vehicle group
Protocol: 8-10 weeks C57BL/6 female mice received a daily topical dose of 62.5 mg/mouse IMQ cream (Aldara® cream 5%; 3M pharmaceuticals, Sweden) on the shaved back and the right ear for 7 consecutive days. Control mice were treated similarly with a control vehicle cream (Vaseline). Test compound (Cpd 24) was orally administered daily from day 0 to day 7 at 3 mg/mL (30 mg/kg). Test compound was given 8 hours before IMQ application. Mice were killed at day 7, 4 h after the last test compound treatment to analyse skin inflammation parameters.
Ear skin tissue were homogenized in PBS containing a protease inhibitor cocktail (P8340, Sigma-Aldrich) by Ultra Turrax, centrifuged and the supernatant was discarded. The pellet was resuspended in 0.5 mL PBS containing 0.5% hexadecyltrimethyl ammonium bromide (HTAB) and 5 mM ethylene-diamine tetra-acetic acid (EDTA). Following centrifugation, 100 μL of supernatants were placed in test tubes with 200 μL PBS-HTAB-EDTA, 1 mL Hanks' balanced salt solution (HBSS), 100 μL of o-dianisidine dihydrochloride (1.25 mg/mL), and 100 μL H2O2 0.05%. […] The MPO activity was determined as absorbance at 460 nm in comparison with medium.
Statistical evaluation of differences between the experimental groups was determined by using two-way Anova followed by a Bonferroni post test. *** p<0.001, IMQ-Vehicle compared with treatment.

[1] = system: Murine EL-4 lymphoma cell line overexpressing human RORγt; assay: IL-17 secretion from EL4 murine lymphoma; type: cell-based; details: Mus musculus; human RORγt-transfected EL4 cells, PMA (10 ng/mL) and ionomycin (1 μM), 24 h; read-out: IC50, IL-17 secretion inhibition
How it was run: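 EL-4 cells electroporated with hRORγt plasmid, seeded at 150000 cells/well and pretreated with compound for 24 h, then stimulated with PMA (10 ng/mL) plus ionomycin (1 μM final) with compound for a further 24 h at 37 °C. IL-17 in supernatant measured by HTRF or ELISA.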

MOG-induced EAE mice = assay: Experimental Autoimmune Encephalomyelitis (EAE) study; type: in vivo, C57BL/6 mice
Description: 8-10 week old, female C57BL/6 mice were purchased from Janvier Lab (St Berthevin, France) and housed for one week before the start of the studies. EAE was induced by immunization with an emulsion of peptide antigen MOG35-55 (Myelin Oligodendrocyte Glycoprotein) ([…], SEQ ID NO: 1) in complete Freund's Adjuvant (CFA), followed by administration of Pertussis Toxin (PTX) in PBS on the day of immunization and day 1 post immunization, following manufacturer recommendation (Hooke, Kit MOG35-55/CFA Emulsion PTX). Animals were treated with drug beginning 2 days before peptide injection. Animals were randomized into groups for treatment by weight, so that the average weight of each group was similar. The groups were segregated by cage. Compounds according to the invention were suspended in Labrafil (M1944 CS) by sonication and animals were dosed twice daily by gavage with 5 mL/kg body weight. The daily doses of Cpd.24 were 30 and 60 mg/kg (b.i.d.) by gavage. […]
Data are expressed as (FIG. 4A) mean (+/−SEM) of clinical score for each group per day and (FIG. 4B). […]
Statistical evaluation of differences between the experimental groups was determined by using two-way Anova followed by a Bonferroni post test. **p<0.005, Vehicle compared with treatments.

IC50 [1]: < 100 nM
Compound: Cc1ccc(C(NC(=O)Cc2ccc3c(c2)CC(=O)N3)c2ccc(C)o2)c(N2CCCCC2)c1 (stereo not shown) [Cpd. 24, N-{[4-methyl-2-(piperidin-1-yl)phenyl](5-methylfuran-2-yl)methyl}-2-(2-oxo-2,3-dihydro-1H-indol-5-yl)acetamide]
MPO activity in ear homogenates (MPO activity): reduced MPO activity
clinical disease score (MOG-induced EAE mice; by day 15 and maintained through in vivo protocol duration): Clinical disease score improvement was apparent
onset of EAE (MOG-induced EAE mice; p/os at 60 mg/kg (b.i.d.) for 20 days): delay the onset of EAE
